Data published in BindingDB's records for doi:10.1016/s0960-894x(03)00648-6 (Ariad Pharmaceuticals, 2003).

Assay: Inhibition of Src-mediated dentine resorption in rabbit-osteoclast assay
For N[C@H]1CC[C@H](Nc2nc(Nc3ccccc3)c3ncn(C4CCCC4)c3n2)CC1, the IC50 was 0.141 µM. For N[C@H]1CC[C@H](Nc2nc(Nc3ccc(P(=O)(O)O)c(P(=O)(O)O)c3)c3ncn(C4CCCC4)c3n2)CC1, the IC50 was 15.7 µM. Work on N[C@H]1CC[C@H](Nc2nc(Nc3ccc(C(P(=O)(O)O)P(=O)(O)O)cc3)c3ncn(C4CCCC4)c3n2)CC1 yielded an IC50 of 22 µM. Work on N[C@H]1CC[C@H](Nc2nc(Nc3ccc(P(=O)(O)CP(=O)(O)O)cc3)c3ncn(C4CCCC4)c3n2)CC1 yielded an IC50 of 0.041 µM. O=P(O)(O)C(O)(CCCNc1nc(Nc2ccccc2)c2ncn(C3CCCC3)c2n1)P(=O)(O)O showed an IC50 of 48.2 µM. In the case of CN(C)CCNc1nc(Nc2ccccc2)c2ncn(C3CCCC3)c2n1, the IC50 is reported as 9.81 µM. For O=P(O)(O)CP(=O)(O)CCCNc1nc(Nc2ccccc2)c2ncn(C3CCCC3)c2n1, the IC50 was 5.23 µM.
